Assay results from patent US20260138961A1, “MODULATORS OF MITOCHONDRIAL DNA REPLICATION” (Pretzel Therapeutics, Inc., priority 2022, published 2026).

molecular target: T1, wild type human POLγ (POLγA:WT) (Homo sapiens, UniProt P54098); assay: DNA polymerization assay, wild type POLγ; type: biochemical; conditions: 0.1 μM dNTP, read-out: WT AC50 (μM) at 0.1 μM
T1 sequence (P54098 1-1239): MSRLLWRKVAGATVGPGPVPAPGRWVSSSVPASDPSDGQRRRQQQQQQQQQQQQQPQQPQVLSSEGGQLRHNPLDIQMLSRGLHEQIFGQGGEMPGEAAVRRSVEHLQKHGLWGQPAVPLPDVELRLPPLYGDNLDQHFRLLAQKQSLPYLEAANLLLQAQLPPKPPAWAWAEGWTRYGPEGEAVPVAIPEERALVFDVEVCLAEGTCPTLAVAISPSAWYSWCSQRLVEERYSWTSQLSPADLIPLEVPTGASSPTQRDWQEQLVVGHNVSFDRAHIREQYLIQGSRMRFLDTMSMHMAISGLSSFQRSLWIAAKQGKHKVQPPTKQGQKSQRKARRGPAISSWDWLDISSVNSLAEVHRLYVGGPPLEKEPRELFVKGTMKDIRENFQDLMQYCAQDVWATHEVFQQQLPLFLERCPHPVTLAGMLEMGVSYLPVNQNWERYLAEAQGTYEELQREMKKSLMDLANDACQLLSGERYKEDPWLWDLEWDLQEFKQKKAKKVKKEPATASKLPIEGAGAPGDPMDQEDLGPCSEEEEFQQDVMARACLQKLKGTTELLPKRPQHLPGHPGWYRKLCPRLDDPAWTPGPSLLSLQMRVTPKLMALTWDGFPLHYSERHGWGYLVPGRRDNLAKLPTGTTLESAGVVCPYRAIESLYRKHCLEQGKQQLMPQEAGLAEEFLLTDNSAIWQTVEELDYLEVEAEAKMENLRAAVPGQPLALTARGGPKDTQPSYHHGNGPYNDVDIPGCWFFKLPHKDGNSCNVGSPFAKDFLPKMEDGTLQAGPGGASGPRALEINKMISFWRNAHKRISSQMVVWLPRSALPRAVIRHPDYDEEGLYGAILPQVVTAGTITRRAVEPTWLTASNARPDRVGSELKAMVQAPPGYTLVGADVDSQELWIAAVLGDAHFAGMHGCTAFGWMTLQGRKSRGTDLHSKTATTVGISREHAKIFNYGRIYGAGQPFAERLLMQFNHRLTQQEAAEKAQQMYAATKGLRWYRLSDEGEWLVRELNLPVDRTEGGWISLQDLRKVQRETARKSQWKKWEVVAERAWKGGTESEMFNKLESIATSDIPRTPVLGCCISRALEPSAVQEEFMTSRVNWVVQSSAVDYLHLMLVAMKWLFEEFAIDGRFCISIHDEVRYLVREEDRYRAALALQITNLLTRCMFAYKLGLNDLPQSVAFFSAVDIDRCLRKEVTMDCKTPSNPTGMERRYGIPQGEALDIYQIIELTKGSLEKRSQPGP
T1 sequence (Q9UHN1 1-485 partner): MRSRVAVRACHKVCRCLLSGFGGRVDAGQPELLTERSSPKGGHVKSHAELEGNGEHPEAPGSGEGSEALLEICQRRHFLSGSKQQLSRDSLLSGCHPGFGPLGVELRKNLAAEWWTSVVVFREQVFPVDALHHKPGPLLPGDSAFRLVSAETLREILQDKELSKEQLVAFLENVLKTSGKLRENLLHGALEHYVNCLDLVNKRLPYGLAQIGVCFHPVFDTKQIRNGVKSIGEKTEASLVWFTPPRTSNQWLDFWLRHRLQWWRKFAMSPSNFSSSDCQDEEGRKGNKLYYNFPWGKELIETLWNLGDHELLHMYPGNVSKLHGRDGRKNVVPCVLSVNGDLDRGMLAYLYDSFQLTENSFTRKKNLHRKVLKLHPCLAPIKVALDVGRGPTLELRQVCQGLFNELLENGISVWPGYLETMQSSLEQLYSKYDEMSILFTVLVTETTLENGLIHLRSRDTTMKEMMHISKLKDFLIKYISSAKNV
Procedure: DNA Polymerization Assay to Monitor Effects on Human Wildtype POLγ and Four Disease-Causing Mutant Variants of Human POLγ.
The ability of small molecules to stimulate the polymerase activity of POLγ was analyzed in a quantitative fluorescence SYBR Green I assay with fluorescence intensity (FI) readout.
In the presence of dNTPs, wild type human POLγ and mutant derivatives thereof were incubated with single-stranded, circular M13mp18 ssDNA hybridized to a short DNA oligonucleotide that functions as a primer for initiation of DNA synthesis. POLγ and mutant derivatives thereof will extend the primer and use the M13mp18 molecule as a template to synthesize long stretches of double-stranded DNA. SYBR Green I, which is a double-stranded DNA-binding dye, was used to quantify formation of double-stranded DNA in the reaction. When bound to double-stranded DNA, SYBR Green I fluorescence increases by up to 100-fold.
The assay was performed in the 384-well plate format. Upon addition of compounds, changes in double-stranded DNA synthesis activity can be monitored by following effects on fluorescent intensity.
The reactions also contained the accessory POLγB subunit, and the human mitochondrial single-stranded DNA binding protein (mtSSB).
The DNA template mixture used in the assay contained 0.5 nM primed M13 mp18 ssDNA, 400 nM mtSSB, 0.1 mM Tris-HCl (pH 8.0), 0.1 mM dNTP, 10 mM MgCl2, 0.1 mg/mL BSA, 1 mM TCEP solution, and 0.02% Triton X-100. The DNA template mixture for the wild type protein contained either 100 μM dNTP, 1 μM dNTP, or 0.1 μM dNTP, designated in Table 2 as 100 μM, 1 μM, and 0.1 μM, respectfully.
Microplates with compounds (0.1 μL in each well) to be tested in the assay were prepared from 10 mM compound stocks in 100% DMSO, and equal amounts of DMSO without any compound were added to positive and negative control wells.
The protein mixture was dispensed (5 μL into each well) into compound plates and incubated at 37° C. for 15 minutes. After incubation, 5 μL of the DNA template mixture was dispensed into each well. The plates were then incubated at 37° C. for 2 hours.
During incubation, a combined stop buffer and detection reagent solution was prepared. The buffer contained 25 mM EDTA (pH 8.0), 0.02% Triton X-100, and SYBR Green I [Invitrogen] diluted 10,000× (for fluorescent readout). EDTA will stop the enzymatic reaction by chelating magnesium ions.

Compared with `Cc1cnc(-c2ccc(Cl)c(NS(=O)(=O)c3cc(C)c(Cl)cc3C)c2)s1` [Example 102, 4-chloro-N-(2-chloro-5-(5-methylthiazol-2-yl)phenyl)-2,5-dimethylbenzenesulfonamide], `Cc1cnc(-c2cc(NS(=O)(=O)c3cc(C)c(Cl)cc3C)ccc2C)s1` [Example 103, 4-chloro-2,5-dimethyl-N-(4-methyl-3-(5-methylthiazol-2-yl)phenyl)benzenesulfonamide] is 3.4-fold higher in AC50: 5 µM for the first, 17 µM for the second.

same assay, conditions: 100 μM dNTP, read-out: WT AC50 (μM) at 100 μM

Going from `Cc1cc(S(=O)(=O)Nc2cccc(C(=O)N(C)C(C)CO)c2)c(C)cc1Cl` (single isomer, unassigned) [Example 14, 3-((4-chloro-2,5-dimethylphenyl)sulfonamido)-N-(1-hydroxypropan-2-yl)-N-methylbenzamide] to `Cc1cc(S(=O)(=O)Nc2cccc(C(=O)N(C)C)c2)c(C)cc1Cl` [Example 12, 3-((4-chloro-2,5-dimethylphenyl)sulfonamido)-N,N-dimethylbenzamide], the AC50 falls from over 100 µM to 5 µM.

First: Cc1ccc(C)c(S(=O)(=O)Nc2cccc(C(=O)N3CCCCC3C#N)c2)c1 (centres unmarked) [Example 2, N-(3-(2-cyanopiperidine-1-carbonyl)phenyl)-2,5-dimethylbenzenesulfonamide]
Second: Cc1ccc(C)c(S(=O)(=O)Nc2cccc(C(=O)N3CCCC[C@H]3C)c2)c1 [Example 5, (R)-2,5-dimethyl-N-(3-(2-methylpiperidine-1-carbonyl)phenyl)benzenesulfonamide]
The AC50 of the first is 5-fold lower: 1 µM for the first, 5 µM for the second.

Going from `Cc1ccc(C)c(S(=O)(=O)Nc2cccc(C(=O)N3CCCCC3)c2)c1` [Example 3, 2,5-dimethyl-N-(3-(piperidine-1-carbonyl)phenyl)benzene sulfonamide] to `Cc1ccc(C)c(S(=O)(=O)Nc2cccc(C(=O)N3CCCC[C@@H]3C)c2)c1` [Example 6, (S)-2,5-dimethyl-N-(3-(2-methylpiperidine-1-carbonyl)phenyl)benzenesulfonamide], the AC50 falls from over 100 µM to 4 µM.

First: Cc1ccc(C)c(S(=O)(=O)Nc2cccc(C(=O)N3CCOCC3C#N)c2)c1 (centres unmarked) [Example 7, N-(3-(3-cyanomorpholine-4-carbonyl)phenyl)-2,5-dimethylbenzenesulfonamide]
Second: Cc1ccc(C)c(S(=O)(=O)Nc2cccc(C(=O)N[C@@H](C)C3CC3)c2)c1 [Example 8, (S)-N-(1-cyclopropylethyl)-3-((2,5-dimethylphenyl)sulfonamido)benzamide]
The AC50 of the first is 5-fold lower: 1 µM for the first, 5 µM for the second.

Going from `Cc1cc(S(=O)(=O)Nc2cccc(C(=O)N3CCCC[C@H]3C)c2)c(C)cc1Cl` [Example 9, (R)-4-chloro-2,5-dimethyl-N-(3-(2-methylpiperidine-1-carbonyl)phenyl)benzenesulfonamide] to `Cc1cc(S(=O)(=O)Nc2cccc(C(=O)N3CCC[C@H]3C)c2)c(C)cc1Cl` [Example 10, (R)-4-chloro-2,5-dimethyl-N-(3-(2-methylpyrrolidine-1-carbonyl)phenyl)benzenesulfonamide], the AC50 falls from 2 µM to 0.5 µM (4-fold).

Going from `Cc1cc(S(=O)(=O)Nc2cccc(C(=O)NCc3ccccc3)c2)c(C)cc1Cl` [Example 11, N-benzyl-3-((4-chloro-2,5-dimethylphenyl)sulfonamido)benzamide] to `CNC(=O)c1cnc(-c2cccc(NS(=O)(=O)c3cc(C)c(Cl)cc3C)c2)s1` [Example 93, 2-(3-((4-chloro-2,5-dimethylphenyl)sulfonamido)phenyl)-N-methylthiazole-5-carboxamide], the AC50 falls from 29 µM to 3 µM (9.7-fold).

Going from `Cc1cc(S(=O)(=O)Nc2cc(F)cc(C(=O)N3CCC[C@H]3C)c2)c(C)cc1Cl` [Example 13, (R)-4-chloro-N-(3-fluoro-5-(2-methylpyrrolidine-1-carbonyl)phenyl)-2,5-dimethylbenzenesulfonamide] to `Cc1cc(S(=O)(=O)Nc2cccc(C(=O)N3CCCC4(CC4)C3)c2)c(C)cc1Cl` [Example 105, N-(3-(5-azaspiro[2.5]octane-5-carbonyl)phenyl)-4-chloro-2,5-dimethylbenzenesulfonamide], the AC50 rises from 1 µM to over 10 µM.

First: Cc1cc(S(=O)(=O)Nc2cccc(-c3nccs3)c2)c(C)cc1Cl [Example 16, 4-chloro-2,5-dimethyl-N-(3-(thiazol-2-yl)phenyl)benzenesulfonamide]
Second: Cc1cc(S(=O)(=O)Nc2cccc(-c3ncco3)c2)c(C)cc1Cl [Example 17, 4-chloro-2,5-dimethyl-N-(3-(oxazol-2-yl)phenyl)benzenesulfonamide]
The AC50 of the first is 3-fold lower: 0.2 µM for the first, 0.6 µM for the second.

`Cc1cc(S(=O)(=O)Nc2cccc(-c3ccn(C)n3)c2)c(C)cc1Cl` [Example 18, 4-chloro-2,5-dimethyl-N-(3-(1-methyl-1H-pyrazol-3-yl)phenyl)benzenesulfonamide] and `Cc1cc(S(=O)(=O)Nc2cccc(-c3nccn3C)c2)c(C)cc1Cl` [Example 19, 4-chloro-2,5-dimethyl-N-(3-(1-methyl-1H-imidazol-2-yl)phenyl)benzenesulfonamide] are within 1.5-fold of each other in AC50: 1 µM for the first, 0.8 µM for the second.

`Cc1cc(S(=O)(=O)Nc2cccc(-c3ncc(C(N)=O)s3)c2)c(C)cc1Cl` [Example 92, 2-(3-((4-chloro-2,5-dimethylphenyl)sulfonamido)phenyl) thiazole-5-carboxamide] and `Cc1cc(S(=O)(=O)Nc2cccc(-c3ncc(C#N)s3)c2)c(C)cc1Cl` [Example 96, 4-chloro-N-(3-(5-cyanothiazol-2-yl)phenyl)-2,5-dimethylbenzenesulfonamide] cannot be ordered by AC50: over 10 µM for the first, over 10 µM for the second.

`Cc1cnc(-c2ccc(C)c(NS(=O)(=O)c3cc(C)c(Cl)cc3C)c2)s1` [Example 98, 4-chloro-2,5-dimethyl-N-(2-methyl-5-(5-methylthiazol-2-yl)phenyl)benzenesulfonamide] and `Cc1cnc(-c2ccc(Cl)c(NS(=O)(=O)c3cc(C)c(Cl)cc3C)c2)s1` [Example 102, 4-chloro-N-(2-chloro-5-(5-methylthiazol-2-yl)phenyl)-2,5-dimethylbenzenesulfonamide] cannot be ordered by AC50: over 10 µM for the first, over 10 µM for the second.

Compared with `Cc1cnc(-c2cc(NS(=O)(=O)c3cc(C)c(Cl)cc3C)ccc2C)s1` [Example 103, 4-chloro-2,5-dimethyl-N-(4-methyl-3-(5-methylthiazol-2-yl)phenyl)benzenesulfonamide], `Cc1cc(S(=O)(=O)N[C@@H]2CCCN(C(=O)[C@@H]3CCCN3C)C2)c(C)cc1Cl` [Example 104, 4-chloro-2,5-dimethyl-N-((R)-1-(methyl-L-prolyl)piperidin-3-yl)benzenesulfonamide] is higher in AC50: 1 µM for the first, over 10 µM for the second.
